According to ChEMBL document CHEMBL1201862, “PubChem BioAssay data set” (2004):
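96-well plates; 48 h exposure; 5 concentrations. Endpoints by linear interpolation between flanking doses. Not reached: highest tested concentration assigned. GI50: concentration for 50% inhibition of growth.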 Activity calls are given as the source filed them. No stated cut-off is given here; in the data, active = GI50 up to about 1.1 µM and inactive = higher.

Key:
Assay in all cases: inhibition of tumour cell growth, NCI panel, 48 h
[1] = tested on: HOP-62
[2] = tested on: HCT-15
[3] = tested on: RXF 393
[4] = tested on: NCI-H460
[5] = tested on: HOP-92
[6] = tested on: K562
[7] = tested on: M19-MEL
[8] = tested on: 786-0
[9] = tested on: SW-620
[10] = tested on: SK-OV-3
[11] = tested on: HCC 2998
[12] = tested on: TK-10
[13] = tested on: ACHN
[14] = tested on: SF-268
[15] = tested on: EKVX
[16] = tested on: SR

| Structure (SMILES) | GI50 [1] | GI50 [2] [µM] | GI50 [3] | GI50 [4] | GI50 [5] | GI50 [6] | GI50 [7] | GI50 [8] | GI50 [9] | GI50 [10] | GI50 [11] | GI50 [12] | GI50 [13] | GI50 [14] | GI50 [15] | GI50 [16] |
| --- | --- | --- | --- | --- | --- | --- | --- | --- | --- | --- | --- | --- | --- | --- | --- | --- |
| Nc1nnc(NC(=O)C2=NS(=O)(=O)c3cc(S(N)(=O)=O)c(Cl)cc3N2)[nH]1 | > 100 µM (inactive) | > 100 | > 100 µM (inactive) | > 100 µM (inactive) | > 100 µM (inactive) | > 100 µM (inactive) | > 100 µM (inactive) | > 100 µM (inactive) | > 100 µM (inactive) | > 100 µM (inactive) | 0.752 µM (active) | > 100 µM (inactive) | > 100 µM (inactive) | > 100 µM (inactive) | > 100 µM (inactive) | > 100 µM (inactive) |
| CC1(C)OC2OC(/C=C/[N+](=O)[O-])C3OC(C)(C)OC3C2O1 (stereo not given) | 20.7 µM (inactive) | 2.25 | 1.99 µM (inactive) | 15.4 µM (inactive) | 8.43 µM (inactive) | 6.84 µM (inactive) | 14.2 µM (inactive) | 13.8 µM (inactive) | 3.27 µM (inactive) | 20.6 µM (inactive) | 16.8 µM (inactive) | 5.26 µM (inactive) | 15.4 µM (inactive) | 19.8 µM (inactive) | 20.1 µM (inactive) | 6.7 µM (inactive) |
| O=C(CCc1cc(-c2ccc(F)cc2)n[nH]1)N(Cc1ccccc1)Cc1ccccc1 | > 100 µM (inactive) | > 100 | > 100 µM (inactive) | > 100 µM (inactive) | > 100 µM (inactive) | > 100 µM (inactive) | > 100 µM (inactive) | > 100 µM (inactive) | > 100 µM (inactive) | > 100 µM (inactive) | > 100 µM (inactive) | > 100 µM (inactive) | > 100 µM (inactive) | > 100 µM (inactive) | > 100 µM (inactive) | 13.8 µM (inactive) |
| COc1cccc(N2C(=O)c3c(c4[nH]c5ccccc5c4c4ccc(C(C)(C)C)cc34)C2=O)c1 | > 100 µM (inactive) | > 100 | > 100 µM (inactive) | > 100 µM (inactive) | > 100 µM (inactive) | > 100 µM (inactive) | > 100 µM (inactive) | > 100 µM (inactive) | > 100 µM (inactive) | > 100 µM (inactive) | > 100 µM (inactive) | > 100 µM (inactive) | > 100 µM (inactive) | > 100 µM (inactive) | > 100 µM (inactive) | > 100 µM (inactive) |
| CCN(CC)C(=O)CCn1cc(F)c(=O)[nH]c1=O | > 100 µM (inactive) | > 100 | > 100 µM (inactive) | > 100 µM (inactive) |  | > 100 µM (inactive) | > 100 µM (inactive) | > 100 µM (inactive) | > 100 µM (inactive) |  |  | > 100 µM (inactive) | > 100 µM (inactive) | > 100 µM (inactive) | > 100 µM (inactive) | > 100 µM (inactive) |
| OCC(O)C(OC1OC(CO)C(O)C(O)C1O)c1nn(-c2ccccc2)c2nc3cc(Cl)c(Cl)cc3cc12 (stereo not given) | > 100 µM (inactive) | > 100 | > 100 µM (inactive) | > 100 µM (inactive) |  | > 100 µM (inactive) | > 100 µM (inactive) | > 100 µM (inactive) |  | > 100 µM (inactive) | > 100 µM (inactive) | > 100 µM (inactive) | > 100 µM (inactive) | > 100 µM (inactive) | > 100 µM (inactive) | > 100 µM (inactive) |
| COc1ccc(Nc2nc3c(N)cc(C(F)(F)F)cc3nc2-c2ccccc2)cc1OC | 24.9 µM (inactive) | 33.4 | 25.7 µM (inactive) | 27.3 µM (inactive) | 20.5 µM (inactive) | 63 µM (inactive) | 22.5 µM (inactive) | 12.4 µM (inactive) | 57.4 µM (inactive) | 12.7 µM (inactive) | 24.1 µM (inactive) | 21.3 µM (inactive) | 12.8 µM (inactive) | 16.5 µM (inactive) | 18.5 µM (inactive) | 92.7 µM (inactive) |
| COC(=O)C(=O)C(C(=O)C(=O)Nc1cc(Cl)c(Cl)cc1Cl)c1nc2ccc([N+](=O)[O-])cc2nc1O (stereo not given) |  | > 100 | > 100 µM (inactive) |  |  | > 100 µM (inactive) | > 100 µM (inactive) | > 100 µM (inactive) | > 100 µM (inactive) | > 100 µM (inactive) | > 100 µM (inactive) | > 100 µM (inactive) | > 100 µM (inactive) | > 100 µM (inactive) | 48.5 µM (inactive) | > 100 µM (inactive) |
| CCOC(=O)C1=C(C)C2C3C(=O)NC(=O)C3C1(C)C1C(=O)NC(=O)C21 (stereo not given) | > 100 µM (inactive) | > 100 | > 100 µM (inactive) | > 100 µM (inactive) | > 100 µM (inactive) | > 100 µM (inactive) | > 100 µM (inactive) | > 100 µM (inactive) | > 100 µM (inactive) | > 100 µM (inactive) | > 100 µM (inactive) | > 100 µM (inactive) | > 100 µM (inactive) | > 100 µM (inactive) | > 100 µM (inactive) |  |
